{"source": "patent US5576174A", "about": "“Catalytic antibody with primary amine cofactor” (The Scripps Research Institute, priority 1995, dated 1996)", "key": {"[1]": {"test_system": "catalytic antibody 72D4 (anti-2, monoclonal antibody raised against quaternary piperidinium hapten 2)", "test": "Antibody 72D4 catalysed aldol addition of acetone to aldehyde 10a giving 11a, amine 7 as cofactor (RP-HPLC)", "type": "biochemical", "conditions": "for Km: random bimolecular model for amine 7 and acetone; for effective molarity kcat/kapp (7): versus background reaction catalysed by 7 alone, aldehyde 10a at 200 mM", "description": "The aldol reaction of 10a and acetone to 11a with amine 7 as cofactor was followed by direct measurement of the formation of 11a by reverse-phase HPLC. The observed background reaction was first order in acetone (0.5% to 10% v/v) and aldehyde 10a (100-2000 mM), and was also first order in catalyst, either the amine cofactor 7 (50-1500 mM) as free base or hydroxide. The corresponding rate constants are kapp (7) (third order) and kapp (OH^-) (second order) for the apparent rate constant for each process at different pH, and k(7) and kOH^- are the third order rate constants for catalysis by amine 7 as free base and hydroxide, respectively (FIG. 1).\nFor acetone and aldehyde 10a, the background kuncat is the second order rate constant of their apparent bimolecular reaction, catalyzed by both hydroxide and amine 7 ([7]=0.2 mM and 0.4 mM, respectively).\nAldehydes 10a-10e were used as 25 mM stock solutions in 1:1 acetonitrile/water of the RP-HPLC purified samples. Cofactor 7 was used as 25 mM stock solution in pure water of the RP-HPLC purified trifluoroacetate salt. Antibody 72D4 was purified to homogeneity (SDS PAGE) by ion exchange and Protein G chromatography as described before,^4a at 8-12 mg/mL stock solutions in either bicine (50 mM, pH 8.0) or phosphate (50 mM, pH 7.4) with 100 mM NaCl.\nThe setup for the kinetics of FIG. 2 is representative: a stock solution (1.8 mL) containing the antibody ([…]) and acetone (1.11% v/v) in 50 mM bicine, 100 mM NaCl, pH 8.0 was separated into four portions of […]. To each was added 3.6 mL of a 25 mM stock solution of each of the aldehydes 10a to 10d. Each […] portion was further separated into four 90 mL portions and 10 mL of solutions of amine 7 in 50 mM bicine, 100 mM NaCl (1 mM, 2 mM, 4 mM, 8 mM) were added. Finally, 50 mL of each 100 mL sample was added to 0.5 mL of a 25 mM stock solution of hapten 12 in water. In each manipulation, the samples were vigorously shaken using a Vortex shaker to ensure homogeneity."}, "[2]": {"test_system": "catalytic antibody 72D4 (anti-2, monoclonal antibody raised against quaternary piperidinium hapten 2)", "test": "Antibody 72D4 catalysed formation of α-aminonitrile 17 from amine 7, acetone and cyanide", "type": "biochemical", "procedure": "Conditions: 50 mM bicine, 0.2M NaCN, pH 9.0, 20° C. […] The reaction was initiated by addition of a concentrated stock solution of either amine 7 or buffered NaCN (no difference was noted). As above, pairs of identical antibody solutions, with and without hapten 12 as inhibitor, were used for measuring the background and catalyzed reaction rates, respectively. 15 mL samples were quenched at 45 sec intervals by mixing with 15 mL 0.5N TFA in water, immediately frozen, and later analyzed by RP-HPLC (C-18 as above, 92.5% H2 O, 7.5% CH3 CN, tR (17)=7.8 minutes) against an internal standard (4-hydroxy-benzoic acid, tR =9.4 minutes). […] The background rate kuncat was derived from the inhibited samples (V vs. [S], 6 points, r^2 =1.0). KM and Vmax were obtained from the Lineweaver-Burk plot of 1/V vs. 1/[S] as above (50, 100, 200, 400, 800, 1600 mM 7, 6 points, r^2 =0.98)."}}}
{"compound": "CC(C)=O", "note": "[acetone]", "values": [{"measurement": "rate acceleration kcat/kuncat (acetone)", "setting": "[1]; apparent effective molarity, acetone varied, [7]=0.2 mM, table 1", "result": 123, "unit": "M"}, {"measurement": "Km", "setting": "[1]; pH 8.0, 200 mM fixed aldehyde 10a, read-out: KM (acetone)", "result": 19000, "unit": "µM"}]}
{"compound": "C[N+]1(Cc2ccc(C(=O)NCCO)cc2)CCCCC1", "note": "[hapten 12, reference compound]", "values": [{"measurement": "inhibition of catalytic activity by addition of hapten 12", "setting": "[1]; 250 mM hapten 12 in the assay set-up", "result": "quantitatively inhibited"}, {"measurement": "inhibition of catalysis by hapten 12", "setting": "[2]; formation of α-aminonitrile 17", "result": "quantitatively inhibited"}]}
{"compound": "CC(=O)Nc1ccc(CC(C)C=O)cc1", "note": "(racemic) [aldehyde 10a, 4-(3'-oxo-2'-methyl-prop-1'-yl)-acetanilide]", "values": [{"measurement": "rate acceleration kcat/kuncat (aldehyde 10a)", "setting": "[1]; apparent effective molarity, aldehyde 10a varied, [7]=0.4 mM, table 1", "result": 102, "unit": "M"}, {"measurement": "kcat", "setting": "[1]; pH 8.0, antibody-acetone-amine complex reacting with aldehyde 10a (200 mM fixed)", "result": 0.014, "unit": "M⁻¹ s⁻¹"}, {"measurement": "kcat", "setting": "[1]; pH 9.0, antibody-acetone-amine complex reacting with aldehyde 10a", "result": 0.053, "unit": "M⁻¹ s⁻¹"}]}
{"compound": "NCc1ccc(C(=O)NCCO)cc1", "note": "[amine 7, N(hydroxyethyl)-4(aminomethyl)-benzamide]", "values": [{"measurement": "Km", "setting": "[1]; pH 8.0, 200 mM fixed aldehyde 10a, read-out: KM (7)", "result": 45, "unit": "µM"}, {"measurement": "effective molarity kcat/kapp (7)", "setting": "[1]; pH 8.0", "result": 370, "unit": "M"}, {"measurement": "Km", "setting": "[1]; pH 9.0, read-out: KM (7)", "result": 95, "unit": "µM"}, {"measurement": "effective molarity kcat/kapp (7)", "setting": "[1]; pH 9", "result": 440, "unit": "M"}, {"measurement": "rate acceleration kcat/kuncat (cofactor 7)", "setting": "[1]; specific activation of the cofactor upon binding to the antibody, table 1", "result": 950}, {"measurement": "kcat", "setting": "[2]; pH 9.0, 1% v/v acetone, 0.2M CN-, 20° C., amine 7 varied", "result": 0.012, "unit": "s⁻¹"}, {"measurement": "Km", "setting": "[2]; pH 9.0, 1% v/v acetone, 0.2M CN-, 20° C., amine 7 varied 50-1600 mM", "result": 130, "unit": "µM"}]}
